Source: patent US8481576B2 (Abbott GmbH & Co. KG, priority 2004, dated 2013)
Counter-ions that a name gives are not always drawn.

Molecular target: T1, h5-HT5A receptor (Homo sapiens, UniProt P47898)
T1 construct: expressed in transfected cells; host or cells: HEK293
Assay: [3H]5-CT binding assay h5-HT5A
Conditions: membranes from HEK293 cells expressing h5-HT5A, 2.5 nM [3H]5-CT; read-out: Binding affinity 5-HT5A (Ki)
Outline: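 Membranes from HEK293 cells stably expressing h5-HT5A incubated with 2.5 nM [3H]5-CT and compound in 100 mM Tris-HCl pH 7.7, 1 mM EDTA, 75 min at 30° C. Nonspecific binding with 10 μM methiothepine; filtration and scintillation counting give Ki or IC50.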

T1 sequence (P47898 whole entry): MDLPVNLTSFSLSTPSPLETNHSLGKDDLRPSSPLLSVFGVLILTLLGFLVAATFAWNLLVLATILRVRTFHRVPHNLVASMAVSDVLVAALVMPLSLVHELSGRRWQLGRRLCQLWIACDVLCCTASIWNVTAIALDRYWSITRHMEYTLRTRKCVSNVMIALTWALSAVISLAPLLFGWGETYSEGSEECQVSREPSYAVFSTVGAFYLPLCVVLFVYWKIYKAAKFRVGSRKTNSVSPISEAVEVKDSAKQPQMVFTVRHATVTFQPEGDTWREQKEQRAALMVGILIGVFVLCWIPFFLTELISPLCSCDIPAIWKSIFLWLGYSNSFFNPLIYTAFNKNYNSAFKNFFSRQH

Structure (SMILES) | Ki [nM]
COc1ccccc1CNC(=N)Nc1ncc[nH]1 [Example 183, N-1H-imidazole-2-yl-N′-(2-methoxybenzyl)guanidine acetate] | 50 to 500
COc1ccccc1CNC(=N)Nc1nc(-c2ccc3c(c2)OCO3)cs1 [Example 101, N-[4-(1,3-benzodioxol-5-yl)-1,3-thiazole-2-yl]-N′-(2-methoxybenzyl)guanidine] | 50 to 500
COc1ccccc1CNC(=N)Nc1nnc(-c2ccccc2)s1 [Example 175, N-(2-methoxybenzyl)-N′-(5-phenyl-1,3,4-thiadiazole-2-yl)guanidine acetate] | > 500
COc1ccccc1CNC(=N)Nc1nc(-c2ccccc2C(F)(F)F)cs1 [Example 103, N-(2-methoxybenzyl)-N′-{4-[2-(trifluoromethyl)phenyl]-1,3-thiazole-2-yl}guanidine] | 50 to 500
COc1cccc(OC)c1CNC(=N)Nc1nc(-c2cc(C(F)(F)F)cc(C(F)(F)F)c2)cs1 [Example 19, N-{4-[3,5-bis(trifluoromethyl)phenyl]-1,3-thiazole-2-yl}-N′-(2,6-dimethoxybenzyl)guanidine hydrobromide] | 50 to 500
COc1ccc2ccccc2c1CNC(=N)Nc1nc(-c2ccccc2)cs1 [Example 146, N-[(2-methoxy-1-naphthyl)methyl]-N′-(4-phenyl-1,3-thiazole-2-yl)guanidine] | 50 to 500
COc1cccc(OC)c1CNC(=N)Nc1nc(-c2ccc(F)c3ccccc23)cs1 [Example 114, N-(2,6-dimethoxybenzyl)-N′-[4-(4-fluoro-1-naphthyl)-1,3-thiazole-2-yl]guanidine] | < 50
COc1cccc(OC)c1CNC(=N)Nc1nc(-c2ccccc2)ns1 [Example 105, N′-(2,6-dimethoxybenzyl)-N-(3-phenyl-1,2,4-thiadiazole-5-yl)guanidine×0.5 (2E)-But-2-endioate] | > 500
COc1ccccc1CNC(=N)Nc1nc(-c2ccc(OC(F)(F)F)cc2)cs1 [Example 100, N-(2-methoxybenzyl)-N′-{4-[4-(trifluoromethoxy)phenyl]-1,3-thiazole-2-yl}guanidine] | < 50
COc1cccc(OC)c1CNC(=N)Nc1nc(CNC(=O)c2ccccc2)cs1 [Example 155, N-[(2-{[[(2,6-dimethoxybenzyl)amino](imino)methyl]amino}-1,3-thiazole-4-yl)methyl]benzamide] | < 50
COc1cccc(OC)c1CNC(=N)Nc1nc(C2CCCN2C(=O)OC(C)(C)C)cs1 (stereo not drawn) [Example 120, tert-butyl 2-(2-{[[(2,6-dimethoxybenzyl)amino](imino)methyl]amino}-1,3-thiazole-4-yl)pyrrolidine-1-carboxylate] | 50 to 500
COc1cccc(OC)c1CNC(=N)Nc1nc(C2CCCN2S(=O)(=O)c2ccccc2)cs1 (stereo not drawn) [Example 150, N-(2,6-dimethoxybenzyl)-N′-{4-[1-(phenylsulfonyl)pyrrolidine-2-yl]-1,3-thiazole-2-yl}guanidine] | < 50
COc1ccccc1CNC(=N)Nc1cc[nH]n1 [Example 205, N-(2-methoxybenzyl)-N′-1H-pyrazole-3-ylguanidine] | 50 to 500
COc1cccc(OC)c1CNC(=N)Nc1nc(C2CCN(S(C)(=O)=O)CC2)cs1 [Example 163, N-(2,6-dimethoxybenzyl)-N′-{4-[1-(methylsulfonyl)piperidine-4-yl]-1,3-thiazole-2-yl}guanidine] | < 50

Further lines, results first:

Ki [nM] | Structure (SMILES)
< 50 | COc1cccc(OC)c1CNC(=N)Nc1nc(-c2ccc(F)c(F)c2)cs1 [Example 87, N-[4-(3,4-difluorophenyl)-1,3-thiazole-2-yl]-N′-(2,6-dimethoxybenzyl)guanidine hydrobromide]
< 50 | COc1cccc(OC)c1CNC(=N)Nc1nc2ccc(C)cc2s1 [Example 169, N-(2,6-dimethoxybenzyl)-N′-(6-methyl-1,3-benzothiazole-2-yl)guanidine fumarate]
< 50 | CCCCS(=O)(=O)NCc1csc(NC(=N)NCc2c(OC)cccc2OC)n1 [Example 157, N-[(2-{[[(2,6-dimethoxybenzyl)amino](imino)methyl]amino}-1,3-thiazole-4-yl)methyl]butane-1-sulfonamide]
< 50 | COc1cccc(C)c1CNC(=N)Nc1nc(-c2ccc(F)cc2)cs1 [Example 138, N-[4-(4-fluorophenyl)-1,3-thiazole-2-yl]-N′-(2-methoxy-6-methylbenzyl)guanidine]
< 50 | COc1cccc(OC)c1CNC(=N)Nc1nc(-c2ccc(F)cc2O)cs1 [Example 142, N-(2,6-dimethoxybenzyl)-N′-[4-(4-fluoro-2-hydroxyphenyl)-1,3-thiazole-2-yl]guanidine]
< 50 | COc1cccc(OC)c1CNC(=N)Nc1nc(-c2ccnc3c(F)cccc23)cs1 [Example 165, N-(2,6-dimethoxybenzyl)-N′-[4-(8-fluorochinoline-4-yl)-1,3-thiazole-2-yl]guanidine]
< 50 | COc1cccc(OC)c1CNC(=N)Nc1nc(-c2ccccc2C(F)(F)F)cs1 [Example 84, N-(2,6-dimethoxybenzyl)-N′-{4-[2-(trifluoromethyl)phenyl]-1,3-thiazole-2-yl}guanidine hydrobromide]
< 50 | COc1cccc(OC)c1CNC(=N)Nc1ncc[nH]1 [Example 177, N-(2,6-dimethoxybenzyl)-N′-1H-imidazole-2-ylguanidine acetate]
< 50 | COc1cccc(OC)c1CNC(=N)Nc1cc(-c2ccccc2)[nH]n1 [Example 202, N-(2,6-dimethoxybenzyl)-N′-(5-phenyl-1H-pyrazole-3-yl)guanidine]
< 50 | COc1cccc(Cl)c1CNC(=N)Nc1nccs1 [Example 6, N-(2-chloro-6-methoxybenzyl)-N′-1,3-thiazole-2-ylguanidine hydrochloride]
< 50 | COc1cccc(OC)c1CNC(=N)Nc1nc(C(=O)NCc2ccccc2)cs1 [Example 194, N-benzyl-2-{[[(2,6-dimethoxybenzyl)amino](imino)methyl]amino}-1,3-thiazole-4-carboxamide]
< 50 | COc1cccc(OC)c1CNC(=N)Nc1nnc(C)[nH]1 [Example 181, N-(2,6-dimethoxybenzyl)-N′-(5-methyl-4H-1,2,4-triazole-3-yl)guanidine]

Molecular target: HIV-1 RT (Human immunodeficiency virus type 1 group M subtype B, UniProt P03366)
Assay: not given
Conditions: Bioorg. Med. Chem. Lett. 2000 (10), 265-268; cited from earlier work

Structure (SMILES) | biological activity
COc1ccccc1CCNC(=N)Nc1nccs1 [N-[2-(2-methoxyphenyl)ethyl]-N′-1,3-thiazole-2-ylguanidine] | did not show any demonstrable biological activity
